# According to paper PMC7926352, “Synthesis, Characterization and In Vitro Evaluation of Novel 5-Ene-thiazolo[3,2-b][1,2,4]triazole-6(5H)-ones as Possible Anticancer Agents” (Molecules, 2021):
# Where two headings read alike, the source gives them in different places.
# Columns and labels:
# [1] = test system: human embryonic kidney (HEK 293) cell lines; assay: MTT cytotoxicity assay; assay type: cell-based; settings: HEK 293, MTT, 24 h
# Experimental: Compounds 2h and 2i were also evaluated in vitro for their cytotoxic potential against human embryonic kidney (HEK 293) cell lines using the MTT assay.
# The cytotoxicity of compounds 2h and 2i was analyzed in vitro by the MTT colorimetric assay on human embryonic kidney cell lines (HEK 293). HEK cell lines were cultured in DMEM supplemented with 10% fetal calf serum and 1% antibiotic-antimycotic mixture culture plates at 37 °C and 5% CO2-humidified incubator. Cells were seeded at a density of 1 × 10^5 cells/well in 96-well plate for 24 h; then, cells were washed and incubated in fresh medium. Compounds 2h and 2i were added at a concentration of 1, 5, 10, 25, and 50 μg/mL to triplicate wells and kept for 24 h, after which cells were washed three times with PBS. After washing, 20 μL of MTT solution (5 mg/mL stock solution) were added to each well, and cells were then incubated for an additional 4 h. The unreacted MTT dye and medium were aspirated off, and 100 μL of DMSO was added to each well to ensure solubilization of formazan crystals. The contents of the plates were mixed for 15 min to achieve complete solubilization of the formazan crystals, and the measurement of optical density was carried out at 570 nm with a micro plate spectrophotometer (MRX Microplate Reader, Dynatech Laboratories Inc., Chantilly, VA, USA) at 570 nm.
# [2] = test system: NCI-H226; assay type: cell-based; settings: NCI-H226, NSCLC
# [3] = test system: SNB-19; assay type: cell-based; settings: SNB-19, CNS Cancer; for CC50: read-out: LC50 (the source's name)
# [4] = test system: K-562
# [5] = test system: SR
# [6] = test system: EKVX
# [7] = test system: HOP-92
# [8] = test system: HCC-2998
# [9] = test system: HCT-15
# [10] = test system: HT29
# [11] = test system: SW-620
# [12] = test system: SF-295
# [13] = test system: SF-539
# [14] = test system: SK-MEL-2
# [15] = test system: UACC-257
# [16] = test system: UACC-62
# [17] = test system: OVCAR-8
# [18] = test system: 786-0
# [19] = test system: CAKI-1
# [20] = test system: SN12C
# [21] = test system: BT-549
# [22] = test system: CNS Cancer cell lines
# [23] = test system: Melanoma cell lines
# [24] = test system: Renal Cancer cell lines
# [25] = test system: Breast Cancer cell lines
# [26] = Homo sapiens, read-out: GI50, panel MG_MID
# [27] = Homo sapiens, read-out: GI50, values range inside panel
# [28] = Homo sapiens, read-out: LC50, panel MG_MID
# [29] = Homo sapiens, read-out: LC50, values range inside panel
# [30] = read-out: GI50, values range inside panel, Breast Cancer subpanel
compound,measurement,setting,value
"O=C(COc1ccc(Cl)cc1/C=c1\sc2ncnn2c1=O)Nc1ccc(Cl)cc1 [Compound 2h, (Z)-2-(4-Chloro-2-((6-oxothiazolo[3,2-b][1,2,4]triazol-5(6H)-ylidene)methyl)phenoxy)-N-(4-chlorophenyl)acetamide]",IC50,"[1]; Homo sapiens, HEK293",29 µM
same,GI50,[2]; Homo sapiens,3.09 µM
same,LC50 (50% lethal concentration),[2]; Homo sapiens,44.7 µM
same,TGI,[2],17.37 µM
same,GI50,[3]; Homo sapiens,3.8 µM
same,CC50,[3]; Homo sapiens,38 µM
same,TGI,[3],14.45 µM
same,GI50,"[4]; Homo sapiens, K562",2.51 µM
same,CC50,"[4]; Homo sapiens, K562, read-out: LC50",49 µM
same,TGI,"[4]; K-562, Leukemia",14.45 µM
same,GI50,[5]; Homo sapiens,1.38 µM
same,CC50,"[5]; Homo sapiens, read-out: LC50",17.4 µM
same,TGI,[5]; Leukemia,4.07 µM
same,GI50,[6]; Homo sapiens,2.51 µM
same,CC50,"[6]; Homo sapiens, read-out: LC50",31.6 µM
same,TGI,[6]; NSCLC,9.99 µM
same,TGI,"[7]; HOP-92, NSCLC",11.74 µM
same,GI50,"[7]; Homo sapiens, HOP-92",2.29 µM
same,CC50,"[7]; Homo sapiens, HOP-92, read-out: LC50",34.7 µM
same,TGI,"[8]; HCC-2998, Colon cancer",18.62 µM
same,GI50,"[8]; Homo sapiens, HCC 2998",7.07 µM
same,CC50,"[8]; Homo sapiens, HCC 2998, read-out: LC50",43.6 µM
same,TGI,"[9]; HCT-15, Colon cancer",21.37 µM
same,GI50,"[9]; Homo sapiens, HCT-15",9.33 µM
same,CC50,"[9]; Homo sapiens, HCT-15, read-out: LC50",45.7 µM
same,TGI,"[10]; HT29, Colon cancer",15.13 µM
same,GI50,"[10]; Homo sapiens, HT-29",4.67 µM
same,CC50,"[10]; Homo sapiens, HT-29, read-out: LC50",38.9 µM
same,GI50,"[11]; Homo sapiens, SW-620",4.26 µM
same,CC50,"[11]; Homo sapiens, SW-620, read-out: LC50",38 µM
same,TGI,"[11]; SW-620, Colon cancer",14.79 µM
same,GI50,"[12]; Homo sapiens, SF-295",1.86 µM
same,CC50,"[12]; Homo sapiens, SF-295, read-out: LC50",18.6 µM
same,TGI,"[12]; SF-295, CNS Cancer",5.24 µM
same,GI50,"[13]; Homo sapiens, SF-539",1.77 µM
same,CC50,"[13]; Homo sapiens, SF-539, read-out: LC50",12.6 µM
same,TGI,"[13]; SF-539, CNS Cancer",4.46 µM
same,GI50,"[14]; Homo sapiens, SK-MEL-2",3.98 µM
same,CC50,"[14]; Homo sapiens, SK-MEL-2, read-out: LC50",38.9 µM
same,TGI,"[14]; SK-MEL-2, Melanoma",13.80 µM
same,GI50,"[15]; Homo sapiens, UACC-257",3.38 µM
same,CC50,"[15]; Homo sapiens, UACC-257, read-out: LC50",38.9 µM
same,TGI,"[15]; UACC-257, Melanoma",15.13 µM
same,GI50,"[16]; Homo sapiens, UACC-62",2.69 µM
same,CC50,"[16]; Homo sapiens, UACC-62, read-out: LC50",38 µM
same,TGI,"[16]; UACC-62, Melanoma",14.79 µM
same,GI50,"[17]; Homo sapiens, OVCAR-8",3.16 µM
same,CC50,"[17]; Homo sapiens, OVCAR-8, read-out: LC50",41.7 µM
same,TGI,"[17]; OVCAR-8, Ovarian Cancer",12.88 µM
same,TGI,"[18]; 786-0, Renal Cancer",15.84 µM
same,GI50,"[18]; Homo sapiens, 786-0",4.16 µM
same,CC50,"[18]; Homo sapiens, 786-0, read-out: LC50",39.8 µM
same,TGI,"[19]; CAKI-1, Renal Cancer",8.12 µM
same,GI50,"[19]; Homo sapiens, CAKI-1",2.39 µM
same,CC50,"[19]; Homo sapiens, CAKI-1, read-out: LC50",28.8 µM
same,GI50,[20]; Homo sapiens,1.62 µM
same,CC50,"[20]; Homo sapiens, read-out: LC50",41.7 µM
same,TGI,[20]; Renal Cancer,12.88 µM
same,TGI,"[21]; BT-549, Breast Cancer",8.51 µM
same,GI50,"[21]; Homo sapiens, BT-549",2.34 µM
same,CC50,"[21]; Homo sapiens, BT-549, read-out: LC50",35.5 µM
same,"TGI, panel MG_MID",[22]; CNS Cancer subpanel,10.76 µM
same,"TGI, values range inside panel",[22]; CNS Cancer subpanel,4.46 to 15.48 µM
same,GI50,[22]; [26],2.87 µM
same,GI50,[22]; [27],1.77 to 4.07 µM
same,CC50,[22]; [28],38.6 µM
same,CC50,[22]; [29],12.6 to 87.1 µM
same,GI50,[23]; [26],4.79 µM
same,GI50,[23]; [27],2.63 to 8.31 µM
same,CC50,[23]; [28],41.2 µM
same,CC50,[23]; [29],33.1 to 51.3 µM
same,"TGI, panel MG_MID",[23]; Melanoma subpanel,16.49 µM
same,"TGI, values range inside panel",[23]; Melanoma subpanel,11.22 to 20.89 µM
same,GI50,[24]; [26],5.37 µM
same,GI50,[24]; [27],1.62 to 12.6 µM
same,CC50,[24]; [28],40.5 µM
same,CC50,[24]; [29],28.8 to 50.1 µM
same,"TGI, panel MG_MID",[24]; Renal Cancer subpanel,16.40 µM
same,"TGI, values range inside panel",[24]; Renal Cancer subpanel,8.12 to 25.11 µM
same,"TGI, panel MG_MID",[25]; Breast Cancer subpanel,15.61 µM
same,"TGI, values range inside panel",[25]; Breast Cancer subpanel,4.07 to 41.68 µM
same,GI50,[25]; [26],4.48 µM
same,CC50,[25]; [28],46.1 µM
same,GI50,[25]; [30],0.01 to 15.5 µM
"Ethyl(Z)-4-(3-(4-chloro-2-((6-oxothiazolo[3,2-b][1,2,4]triazol-5(6H)-ylidene)methyl)phenyl)propanamido)benzoate [Compound 2i]",IC50,[1],24.4 µM
same,GI50,[2],17 µM
same,LC50 (50% lethal concentration),[2],67.6 µM
same,TGI,[2],33.11 µM
same,GI50,[3],10.2 µM
same,TGI,[3],23.44 µM
same,CC50,[3],52.5 µM
same,GI50,"[4]; K-562, Leukemia",18.2 µM
same,TGI,"[4]; K-562, Leukemia",> 100 µM
same,GI50,[5]; Leukemia,11 µM
same,TGI,[5]; Leukemia,79.43 µM
same,GI50,[6]; NSCLC,12.9 µM
same,TGI,[6]; NSCLC,25.70 µM
same,GI50,"[7]; HOP-92, NSCLC",10.2 µM
same,TGI,"[7]; HOP-92, NSCLC",29.51 µM
same,GI50,"[8]; HCC-2998, Colon cancer",16.6 µM
same,TGI,"[8]; HCC-2998, Colon cancer",33.11 µM
same,GI50,"[9]; HCT-15, Colon cancer",13.8 µM
same,TGI,"[9]; HCT-15, Colon cancer",27.54 µM
same,GI50,"[10]; HT29, Colon cancer",12 µM
same,TGI,"[10]; HT29, Colon cancer",24.54 µM
same,GI50,"[11]; SW-620, Colon cancer",9.99 µM
same,TGI,"[11]; SW-620, Colon cancer",21.37 µM
same,GI50,"[12]; SF-295, CNS Cancer",10.5 µM
same,TGI,"[12]; SF-295, CNS Cancer",23.44 µM
same,GI50,"[13]; SF-539, CNS Cancer",12.6 µM
same,TGI,"[13]; SF-539, CNS Cancer",25.11 µM
same,GI50,"[14]; SK-MEL-2, Melanoma",14.5 µM
same,TGI,"[14]; SK-MEL-2, Melanoma",33.11 µM
same,GI50,"[15]; UACC-257, Melanoma",10.5 µM
same,TGI,"[15]; UACC-257, Melanoma",25.70 µM
same,GI50,"[16]; UACC-62, Melanoma",13.8 µM
same,TGI,"[16]; UACC-62, Melanoma",26.30 µM
same,GI50,"[17]; OVCAR-8, Ovarian Cancer",13.5 µM
same,TGI,"[17]; OVCAR-8, Ovarian Cancer",33.88 µM
same,GI50,"[18]; 786-0, Renal Cancer",11.2 µM
same,TGI,"[18]; 786-0, Renal Cancer",23.98 µM
same,GI50,"[19]; CAKI-1, Renal Cancer",10.5 µM
same,TGI,"[19]; CAKI-1, Renal Cancer",23.98 µM
same,GI50,[20]; Renal Cancer,12.6 µM
same,TGI,[20]; Renal Cancer,25.11 µM
same,GI50,"[21]; BT-549, Breast Cancer",3.8 µM
same,TGI,"[21]; BT-549, Breast Cancer",15.84 µM
same,"TGI, panel MG_MID",[22]; CNS Cancer subpanel,27.42 µM
same,"TGI, values range inside panel",[22]; CNS Cancer subpanel,19.05 to 44.66 µM
same,GI50,"[22]; read-out: GI50, panel MG_MID, CNS Cancer subpanel",9.85 µM
same,GI50,"[22]; read-out: GI50, values range inside panel, CNS Cancer subpanel",6.02 to 13.2 µM
same,"TGI, panel MG_MID",[23]; Melanoma subpanel,25.61 µM
same,"TGI, values range inside panel",[23]; Melanoma subpanel,18.19 to 33.11 µM
same,GI50,"[23]; read-out: GI50, panel MG_MID, Melanoma subpanel",11.8 µM
same,GI50,"[23]; read-out: GI50, values range inside panel, Melanoma subpanel",5.62 to 14.8 µM
same,CC50,"[23]; read-out: LC50, panel MG_MID, Melanoma subpanel",55.4 µM
same,"TGI, panel MG_MID",[24]; Renal Cancer subpanel,27.13 µM
same,"TGI, values range inside panel",[24]; Renal Cancer subpanel,21.37 to 31.62 µM
same,GI50,"[24]; read-out: GI50, panel MG_MID, Renal Cancer subpanel",13 µM
same,GI50,"[24]; read-out: GI50, values range inside panel, Renal Cancer subpanel",5.75 to 17.4 µM
same,CC50,"[24]; read-out: LC50, values range inside panel, Renal Cancer subpanel",51.3 to 58.9 µM
same,"TGI, panel MG_MID",[25]; Breast Cancer subpanel,30.29 µM
same,GI50,"[25]; read-out: GI50, panel MG_MID, Breast Cancer subpanel",9.72 µM
same,GI50,[25]; [30],3.54 to 21.9 µM
